Assay results as given in patent US11071550B2, “Methods and devices for treating pancreatitis” (priority 2017, dated 2021).
Blank lines part the entries; values can stand above or below the compound they belong to.

What was measured:
Mouse islets = test: In vitro static glucose stimulated insulin secretion (GSIS) of isolated islets
[1] = test system: ligated tail of the pancreas
Description: Mouse pancreatic duct ligation (PDL) yields a model that is reflective of chronic pancreatitis with progressive loss of islet tissue. In the PDL procedure, the pancreatic duct is ligated at the mid-point of the pancreas (FIG. 4, right image). Thus, only the distal half (tail) of the pancreas is affected since the ligation is positioned at the mid-point of the duct. […] FIGS. 5A-5E show insulin staining using DAB, whereas FIGS. 5F-5J show insulin and amylase staining using immunofluorescence (with a Hoescht counterstain for labeling cell nuclei).
The negative effects of a pancreatitis milieu on β-cell function are well known (17).
Five repeats are analyzed in each condition. […] Significance is considered when p<0.05.

mouse pancreas [2] = test system: mouse pancreas
mouse pancreas [3] = test system: mouse pancreas; remark: listed apart in the source
monkey pancreas = settings: 1% acetic acid
Description: Cynomologus monkeys can be used to study the retrograde infusion protocol in primates. […] The Cynomologus monkeys are first quarantined for 30 days, then transferred to the primate facility and given a 1 to 2-week acclimatization period before operating. After acclimatization, the animals undergo a laparotomy and duodenotomy with cannulation of the ampulla of Vater and temporary clamping of the common bile duct to prevent perfusion of the liver (additional details below).
Fluoroscopic dye can also be infused to confirm the location and positioning of the catheter (FIGS. 12A and 12B). […] The catheter and clamp are then removed and the surgery completed.
Cynomologus infusion procedure details: After induction of general anesthesia, the abdomen is prepped and draped and a 10 to 12 centimeter upper abdominal midline incision created. The duodenum is fully mobilized out of the retroperitoneum and a non-crushing clamp applied to the common bile duct to prevent the composition from perfusing the bile duct and liver. A two centimeter duodenotomy is then created to expose the ampulla of Vater, which is cannulated with a 2.8 French double lumen umbilical artery catheter. A clamp is then placed on the minor papilla and catheter to prevent back leaking of the composition. […]
During the 3 to 6-week period between the procedure and the sacrifice, Cynomologus monkeys are supplied with CREON enzymes as a dietary supplement to avoid malabsorption due to loss of acinar enzyme production by the pancreas. […] Throughout the 3 to 6-week period, the Cynomologus monkeys are monitored for scleral icterus as a sign of possible biliary obstruction due to bile duct structuring caused by the infusion.
At harvest, the pancreas and duodenum are examined grossly in situ, and then removed en bloc along with the common bile duct. […] In addition, beta cell mass is calculated based on the percent insulin positive area on histology along with the gross weight of the pancreas.

[4] = 100% ethanol infused at 8 weeks post-PDL
[5] = 100% ethanol, 1, 3, 6, 9 months

Compound: CCO [ethanol]
insulin secretion by islets from the pancreatic tail (in vitro GSIS) (Mouse islets; PDL+ethanol-infused tail islets, per 200 islets, low or high glucose, vs sham): normal insulin secretion pattern | endocrine function: in vitro glucose-stimulated insulin secretion (GSIS) (Mouse islets; islets from 100% ethanol-infused mice, 9-month time point): appears normal | loss of islets in the pancreatic tail [1, 4]: prevents the loss of islets in the pancreatic tail | recurrent inflammation [1, 4]: no detectable recurrent inflammation | regeneration of acinar cells ([1]; 100% ethanol infused at 8 weeks post-PDL, insulin and amylase staining): no detectable regeneration of acinar cells | β-cell mass in the ligated tail ([1]; PDL + ethanol infusion at 8 weeks, 24 weeks, mean±SEM): 0.61±0.01 milligrams | fasting blood glucose levels vs PDL and sham operated ([1]; PDL+ethanol-infused, 24 weeks): no different | glucose tolerance testing vs PDL and sham operated ([1]; PDL+ethanol-infused, 24 weeks): no different | jaundice rates ([1]; male, C57BL/6, mouse, in vivo): less than 5% | fasting glucose levels vs sham operated controls (mouse pancreas [2]; Example 2, all time points): no difference | glucose tolerance tests vs sham operated controls (mouse pancreas [2]; Example 2, all time points): no difference | time to significant levels of ethanol in the blood after infusion (mouse pancreas [3]; 100% ethanol pancreatic ductal infusion): ≤ 5 min | pancreatic acinar tissue upon sacrifice (mouse pancreas [3]; 100% ethanol, 100 microliters, sacrifice at 1, 3, 6, 9 months): no evidence of pancreatic acinar tissue | amylase (AMY) staining (mouse pancreas [3]; [5]): absent at all time points | pancreatic endocrine tissue (β-cells and alpha cells) (mouse pancreas [3]; [5]): well-preserved | endocrine function: in vivo insulin levels during glucose tolerance testing (mouse pancreas [3]; 100% ethanol, 9-month time point): appears normal | islet vasculature (CD31 staining) (mouse pancreas [3]; 100% ethanol, 9 months): appears to be intact | fasting glucose levels vs sham-operated controls (mouse pancreas [3]; 100% ethanol, all time points): no difference | glucose tolerance tests vs sham-operated controls (mouse pancreas [3]; 100% ethanol, all time points): no difference | body weight vs controls (mouse pancreas [3]; 100% ethanol, elemental diet): not different from controls | β-cell mass vs sham-operated (mouse pancreas [3]; 100% ethanol, pancreatic tail, any time point): no significant difference

islets (histology) (mouse pancreas [2]; 1% acetic acid): remained intact | open field testing: rearing (time pressed) vs sham group (mouse pancreas [2]; 1% acetic acid): not significantly different | pain (mouse pancreas [2]; 1% acetic acid, conclusion from open field testing): does not cause pain | open field testing: distance traveled vs sham group (mouse pancreas [2]; 1% acetic acid, distance in meters): not significantly different | recovery from the infusion procedure (monkey pancreas; e.g. 7 milliliters at 500 centimeters of water): recover well | islets (H&E) (monkey pancreas; three weeks after infusion): intact islets
Compound: CC(=O)O [acetic acid]
immunohistochemistry of treated pancreatic tissue (insulin, amylase) (mouse pancreas [2]; 1% acetic acid): insulin positive and amylase negative | exocrine tissue (mouse pancreas [2]; 1% acetic acid, 6 months (FIG. 7)): ablation of the exocrine tissue | ablation of the exocrine pancreas (monkey pancreas; three weeks after infusion): ablation of the exocrine pancreas in the head and body of the pancreas, and part of the tail
